Columns and labels:
[1] = test system: Haemaphyxalis Longicornis; experiment: Dry Film Insecticidal Test for Haemaphyxalis Longicornis; type: in vivo; details: 1 ml of 1 ppm acetone solution dried on 9 cm glass petri dish; young ticks; 48 hours of exposure; 25° C.; dead and anguish ticks
Experimental: 1 ml of an acetone solution that was prepared so that the compound was included at a concentration of 1 ppm was added dropwise to a glass petri dish having a diameter of 9 cm. After the addition, the acetone was air-dried for use in the test. About 10 young ticks were added. Then the dish was covered by a plastic film and sealed with a lid. The dish was placed in a constant temperature bath that was set at a temperature of 25° C., at a humidity of 100%, and with a light:dark cycle of 16:8.
After 48 hours of the exposure, the conditions of the ticks were examined and classified into “alive”, “dead (including a moribund condition)”, and “anguish”. The death rates after 48 hours are illustrated in Table 9.
The death rates were calculated as follows: Death Rate (%)=(Number of Dead and Anguish Ticks)/Total Number of Ticks×100

Ctenocephalides felis = experiment: Insecticidal Test for Ctenocephalides felis (treated filter paper contact); type: in vivo; details: 50 μg/cm^2 on filter paper; emerged adult fleas; 72 hours of exposure; dead including moribund; in triplicate
Experimental: 0.2 mL of an acetone solution was added dropwise to a round filter paper having a diameter of 4.0 cm that were grasped with tweezers so that each of the compounds was included in an amount of 50 μg/cm^2. After the addition, the filter paper was dried at room temperature for 24 hours for use in the test.
Three 200 mL vials were used per compound. The filter paper treated with a test agent was placed tightly into a lid of the vials so that fleas might be contacted with the paper.
About 20 emerged adult fleas were added to each of the 200 mL vials using an aspirator. Then immediately, the vial was sealed with the lid into which the filter paper that was treated with the agent was tightly placed. It was examined if the fleas that were already dead were added. In a case in which dead fleas were found, the number of the dead fleas was subtracted from the total number.
The vials were turned upside down so that the fleas were always contacted with the filter paper. After 24, 48, and 72 hours of the exposure, the conditions of the fleas were examined and classified into “alive” and “dead (including a moribund condition)” to determine the death rates (in triplicate). The death rates after 72 hours are illustrated in Table 8.
The death rates were calculated as follows: Death Rate (%)=(Number of Dead Fleas including Moribund Fleas)/Total Number of Fleas×100

| SMILES | Death Rate after 48 hours (%) [1] | Death Rate after 72 hours (%) (Ctenocephalides felis) |
| --- | --- | --- |
| CN(CC(F)(F)F)C(=O)C(=O)Nc1cccc(C(=O)Nc2c(Cl)cc(C(F)(C(F)(F)F)C(F)(F)F)cc2C(F)(F)F)c1F [6-3] | 100% | – |
| CN(CC(F)(F)F)C(=O)C(=O)N(C)c1cccc(C(=O)Nc2c(Br)cc(C(F)(C(F)(F)F)C(F)(F)F)cc2C(F)(F)F)c1F [6-4] | 100% | – |
| CN(CC(F)(F)F)C(=O)C(=O)N(C)c1cccc(C(=O)Nc2c(I)cc(C(F)(C(F)(F)F)C(F)(F)F)cc2C(F)(F)F)c1F [6-5] | 100% | – |
| CN(CC(F)(F)F)C(=O)C(=O)Nc1cccc(C(=O)Nc2c(Br)cc(C(F)(C(F)(F)F)C(F)(F)F)cc2SC(F)(F)F)c1F [6-6] | 100% | – |
| CN(CC(F)(F)F)C(=O)C(=O)Nc1cccc(C(=O)Nc2c(Br)cc(C(F)(C(F)(F)F)C(F)(F)F)cc2[S+]([O-])C(F)(F)F)c1F (stereo not drawn) [6-7] | 100% | – |
| CN(CC(F)(F)F)C(=O)C(=O)Nc1cccc(C(=O)Nc2c(Br)cc(C(F)(C(F)(F)F)C(F)(F)F)cc2S(=O)(=O)C(F)(F)F)c1F [6-8] | 100% | – |
| CN(CC(F)(F)F)C(=O)C(=O)Nc1cccc(C(=O)Nc2c(I)cc(C(F)(C(F)(F)F)C(F)(F)F)cc2SC(F)(F)F)c1F [6-9] | 100% | – |
| CN(CC(F)(F)F)C(=O)C(=O)Nc1cccc(C(=O)Nc2c(I)cc(C(F)(C(F)(F)F)C(F)(F)F)cc2[S+]([O-])C(F)(F)F)c1F (stereo not drawn) [6-10] | 100% | – |
| CN(CC(F)(F)F)C(=O)C(=O)Nc1cccc(C(=O)Nc2c(I)cc(C(F)(C(F)(F)F)C(F)(F)F)cc2S(=O)(=O)C(F)(F)F)c1F [6-11] | 100% | – |
| CN(CC(F)(F)F)C(=O)C(=O)Nc1cccc(C(=O)Nc2c(Br)cc(C(F)(C(F)(F)F)C(F)(F)F)cc2OC(F)F)c1F [6-12] | 100% | – |
| CN(CC(F)(F)F)C(=O)C(=O)N(C)c1cccc(C(=O)Nc2c(Br)cc(C(F)(C(F)(F)F)C(F)(F)F)cc2OC(F)F)c1F [6-13] | 100% | – |
| CCN(C)C(=O)C(=O)N(C)c1cccc(C(=O)Nc2c(I)cc(C(F)(C(F)(F)F)C(F)(F)F)cc2OC(F)F)c1F [6-14] | 100% | – |
| CCN(C)C(=O)C(=O)N(C)c1cccc(C(=O)Nc2c(I)cc(C(F)(C(F)(F)F)C(F)(F)C(F)(F)F)cc2OC(F)F)c1F (stereo not drawn) [6-15] | 100% | – |
| CCN(C)C(=O)C(=O)N(C)c1cccc(C(=O)Nc2c(C)cc(C(F)(C(F)(F)F)C(F)(F)C(F)(F)F)cc2OC(F)F)c1F (stereo not drawn) [6-16] | 100% | – |
| CN(CC(F)(F)F)C(=O)C(=O)N(C)c1cccc(C(=O)Nc2c(I)cc(C(F)(C(F)(F)F)C(F)(F)C(F)(F)F)cc2SC(F)(F)F)c1F (stereo not drawn) [6-18] | 100% | – |
| CN(CC(F)(F)F)C(=O)C(=O)N(C)c1cccc(C(=O)Nc2c(I)cc(C(F)(C(F)(F)F)C(F)(F)C(F)(F)F)cc2S(=O)(=O)C(F)(F)F)c1F (stereo not drawn) [6-19] | 100% | – |
| CCN(C)C(=O)C(=O)N(C)c1cccc(C(=O)Nc2c(I)cc(C(F)(C(F)(F)F)C(F)(F)C(F)(F)F)cc2S(=O)(=O)C(F)(F)F)c1F (stereo not drawn) [6-20] | 100% | – |
| CN(CC(F)(F)F)C(=O)C(=O)Nc1cccc(C(=O)Nc2c(Br)cc(C(F)(C(F)(F)F)C(F)(F)F)cc2Br)c1F [Compound No. 4-66] | 100% | – |
| CCN(C)C(=O)C(=O)Nc1cccc(C(=O)Nc2c(Br)cc(C(F)(C(F)(F)F)C(F)(F)F)cc2OC(F)F)c1 [Compound No. 5-15] | 100% | 80.0% |
| CN(CCF)C(=O)C(=O)Nc1cccc(C(=O)Nc2c(Br)cc(C(F)(C(F)(F)F)C(F)(F)F)cc2C(F)(F)F)c1F [Compound No. 6-1, 2-fluoro-3-[N-(2-fluoroethyl)-N-methylaminoxalylamino]-N-[2-bromo-4-heptafluoroisopropyl-6-(trifluoromethyl)phenyl]benzamide] | 100% | 100% |
| CN(CCF)C(=O)C(=O)Nc1cccc(C(=O)Nc2c(I)cc(C(F)(C(F)(F)F)C(F)(F)F)cc2C(F)(F)F)c1F [Compound No. 6-2, 2-fluoro-3-[N-(2-fluoroethyl)-N-methylaminoxalylamino]-N-[2-iodo-4-heptafluoroisopropyl-6-(trifluoromethyl)phenyl]benzamide] | 100% | 100% |
